Earlier results in US20080260683A1, “Rodenticide” (priority 2004, published 2008).

| SMILES | solubility in water |
| --- | --- |
| O=c1sc2ccccc2c(O)c1C1CC(c2ccc(-c3ccc(Br)cc3)cc2)Cc2ccccc21 (stereo not shown) [difethialone] | insoluble or weakly soluble in water |
| O=c1oc2ccccc2c(O)c1C1CC(c2ccc(-c3ccc(Br)cc3)cc2)Cc2ccccc21 (stereo not shown) [Brodifacoum, brodifacoum] | insoluble or weakly soluble in water |
| O=c1oc2ccccc2c(O)c1C1CC(c2ccc(OCc3ccc(C(F)(F)F)cc3)cc2)Cc2ccccc21 (stereo not shown) [flocoumafen] | insoluble or weakly soluble in water |
| O=c1oc2ccccc2c(O)c1C(CC(O)c1ccc(-c2ccc(Br)cc2)cc1)c1ccccc1 (stereo not shown) [bromadiolone] | insoluble or weakly soluble in water |
